From US20260124215A1, “METHODS OF TREATMENT OF INTESTINAL INFECTIONS” (THE FRANCIS CRICK INSTITUTE LIMITED, priority 2022, published 2026)

Assays:
[1] = test system: Cryptosporidium parasites; assay: Lapaquistat/Lovastatin combination in Cryptosporidium-infected HCT-8 cells (infection ratio, Opera Phenix); type: cell-based; conditions: HCT-8, 48 hours of infection, infection ratio = number of parasites/number of host cells, drug alone, read-out: IC50 (ability to limit Cryptosporidium growth)
Procedure: Intestinal epithelial cells (HCT-8) were infected with Cryptosporidium parasites and treated with increasing concentrations of Lapaquistat acetate or Lovastatin, either alone or in combination. After 48 hours of infection, cells were then fixed and stained with a lectin that specifically marks parasites and a Hoechst dye that specifically labels DNA. Cells and parasites were then visualized with an Opera Phenix imaging microscope and infection ratio was calculated as number of parasites/number of host cells.

[2] = test system: Cryptosporidium parvum; assay: In vitro IC50 curves in Cryptosporidium-infected HCT-8 intestinal epithelial cell monolayers (imaging of total and female parasites); type: cell-based; conditions: infected intestinal epithelial cells; development measured by % female parasites in total parasites; figure legends
Procedure: HCT-cells (ATCC; CCL-244) were seeded in a 96-well plate at a density of 30,000 cells/well in complete media (RPMI with 10% FCS) and allowed to grow for 48 hours. Cryptosporidium parvum oocysts (Bunchgrass Farms; Dreary Idaho, USA) were prepared for infection by bleach treating (1% sodium hypochlorite) on ice for 5 minutes to remove bacterial contaminants, followed by a wash step and incubation in 0.75% sodium taurocholate for 10 minutes at 37° C. to trigger excystation. Oocysts were resuspended in infection media (RPMI with 1% FCS) and added to cells in 100 uL media (20,000 oocysts/well). A 10 mM solution of lapaquistat acetate (MedChem Express; Cat. No. HY-16274-1 mg) was created using DMSO as the solvent. From this stock, a half-logarithmic (3.16-fold) dilution series was created in infection media, at 2× the intended final concentration. 3 hours post-infection, 100 uL of each drug dilution was added to the wells. Each drug concentration comprised 6 technical replicates. […] The plate was then imaged using a Cytation cell imaging multimode reader (BioTek) to count host nuclei, total number of parasites, and the number of female parasites among them. […]

[3] = test system: Cryptosporidium; conditions: malnourished and immunocompromised patients; cited from earlier work

Compound: CC[C@H](C)C(=O)O[C@H]1C[C@@H](C)C=C2C=C[C@H](C)[C@H](CC[C@@H]3C[C@@H](O)CC(=O)O3)[C@H]21 [Lovastatin]
- IC50 [1]: 4.1 µM

Compound: F/C(COc1ccc2c(c1)[nH]c1ccccc12)=C1/CN2CCC1CC2 [YM-53601]
- efficacy against parasite growth and parasite development [2]: show efficacy

Compound: CC(=O)Oc1ccccc1C(=O)Nc1ncc([N+](=O)[O-])s1 [nitazoxanide]
- efficacy in patients [3]: limited efficacy
